Results reported in patent US20260000656A1, “ANTIFUNGAL AGENTS WITH ENHANCED ACTIVITY IN ACIDIC PH” (Scynexis, Inc., priority 2017, published 2026).
Converted amounts (≈) assume the structure as drawn. Like-named read-outs stand apart in the source and are kept apart here. Numbered stars: 1 amine (or outer) side, 2 acyl side, 3 side chain; on linkers, the order of the positions; unused ones are H or OH. Bridge positions count the residues as written; N and C are the ends. Square brackets hold non-standard residues; d marks the D form. Peptide text beside a SMILES is read from it. * marks the point of attachment. hTyr(3S-OH,4S-OH,3'-OSO3H) = N[C@H](C(=O)O)[C@H](O)[C@@H](O)c1ccc(O)c(OS(=O)(=O)O)c1; Orn(4R-OH,5R-OH) = O=C([C@H](C[C@@H](O)[C@@H](O)N[*:3])N[*:1])[*:2]; Pro(3S-OH,4S-Me) = C[C@H]1CN[C@H](C(=O)O)[C@H]1O; X1 = CCCCCOc1ccc(-c2cc(-c3ccc(C(=O)*)cc3)no2)cc1; Gln(3R-OH) = NC(=O)C[C@@H](O)[C@H](N)C(=O)O; Hyp = O=C(O)[C@@H]1C[C@@H](O)CN1

System: C. glabrata isolates
Test: Broth microdilution susceptibility (CLSI M27-A3) at different medium pH
Assay type: cell-based, Candida glabrata
Conditions: for MIC range: 50% inhibition, 10 vaginal isolates; for MIC50 / MIC90 / MIC: Nakaseomyces glabratus, 24 h
Method: Ten strains each of C. glabrata and C. albicans vaginal isolates were tested. The strains were obtained from recent clinical trial patients with vulvovaginal candidiasis (VVC) prior to treatment. Candida strains were obtained from the Mycology Reference Library (MRL) at Case Western Reserve University School of Medicine, Ohio, United States.
Susceptibility testing was performed using a broth microdilution method, according to CLSI M27-A3 guidelines (CLSI. 2008. Reference Method for Broth Dilution Antifungal Susceptibility Testing of Yeasts; Approved Standard—Third Edition. Clinical and Laboratory Standards Institute, CLSI document M27-A3). Antifungals and concentrations tested were SCY-078 and micafungin (both at concentrations within the range of 0.015 to 8 μg/ml) and fluconazole (at concentrations within the range of 0.125 to 64 μg/ml). A 0.1-ml C. albicans and C. glabrata inoculum of 0.5-2.5×10^3 blastospores/ml in RPMI 1640 medium was added to each microdilution well. ATCC strains of Candida parapsilosis and Candida krusei QC isolates were also included concurrently to ensure quality control. Antifungal susceptibility testing was carried out for each isolate in RPMI 1640 at pH 7 (to mimic RPMI medium used in testing the susceptibility of yeast by the CLSI M-27A3 document), pH 5.7, and pH 4.5 (to mimic the pH of the vaginal cavity) by adjusting the pH of the media using NaOH or HCl. […] Agents Chemother., 43: 1383-1386 (1999).
[…] SCY-078 powder was manufactured by Avista, Laboratories, NC. Micafungin and fluconazole were sourced from LGM Pharma.

Structure (SMILES): CCCCCOc1ccc(-c2cc(-c3ccc(C(=O)N[C@H]4C[C@@H](O)[C@@H](O)NC(=O)[C@@H]5[C@@H](O)[C@@H](C)CN5C(=O)[C@H]([C@H](O)CC(N)=O)NC(=O)[C@H]([C@H](O)[C@@H](O)c5ccc(O)c(OS(=O)(=O)O)c5)NC(=O)[C@@H]5C[C@@H](O)CN5C(=O)[C@H]([C@@H](C)O)NC4=O)cc3)no2)cc1 [Micafungin, reference compound] (X1-[Orn(4R-OH,5R-OH)]T[Hyp][hTyr(3S-OH,4S-OH,3'-OSO3H)][Gln(3R-OH)][Pro(3S-OH,4S-Me)]; lactam 1-C)
- MIC range (pH 4.5, 24 h): 0.25 µg/mL (≈ 0.197 µM)
- MIC range (pH 5.72, 24 h): 0.25 µg/mL (≈ 0.197 µM)
- MIC range (pH 7.0, 24 h): 0.25 to 0.5 µg/mL
- MIC50 (pH 4.5): 0.25 µg/mL (≈ 0.197 µM)
- MIC90 (pH 4.5): 0.25 µg/mL (≈ 0.197 µM)
- MIC (pH 4.5, read-out: MIC (50% inhibition), C. glabrata MRL 32075, pH 4.5, 24 hours): 0.25 µg/mL (≈ 0.197 µM)
- MIC (pH 4.5, read-out: MIC (50% inhibition), C. glabrata MRL 32232, pH 4.5, 24 hours): 0.25 µg/mL (≈ 0.197 µM)
- MIC (pH 4.5, read-out: MIC (50% inhibition), C. glabrata MRL 32626, pH 4.5, 24 hours): 0.25 µg/mL (≈ 0.197 µM)
- MIC (pH 4.5, read-out: MIC (50% inhibition), C. glabrata MRL 32993, pH 4.5, 24 hours): 0.25 µg/mL (≈ 0.197 µM)
- MIC (pH 4.5, read-out: MIC (50% inhibition), C. glabrata MRL 33204, pH 4.5, 24 hours): 0.25 µg/mL (≈ 0.197 µM)
- MIC (pH 4.5, read-out: MIC (50% inhibition), C. glabrata MRL 33960, pH 4.5, 24 hours): 0.25 µg/mL (≈ 0.197 µM)
- MIC (pH 4.5, read-out: MIC (50% inhibition), C. glabrata MRL 33961, pH 4.5, 24 hours): 0.25 µg/mL (≈ 0.197 µM)
- MIC (pH 4.5, read-out: MIC (50% inhibition), C. glabrata MRL 34339, pH 4.5, 24 hours): 0.25 µg/mL (≈ 0.197 µM)
- MIC (pH 4.5, read-out: MIC (50% inhibition), C. glabrata MRL 34407, pH 4.5, 24 hours): 0.25 µg/mL (≈ 0.197 µM)
- MIC (pH 4.5, read-out: MIC (50% inhibition), C. glabrata MRL 34576, pH 4.5, 24 hours): 0.25 µg/mL (≈ 0.197 µM)
- MIC50 (pH 5.72): 0.25 µg/mL (≈ 0.197 µM)
- MIC90 (pH 5.72): 0.25 µg/mL (≈ 0.197 µM)
- MIC (pH 5.72, read-out: MIC (50% inhibition), C. glabrata MRL 32075, pH 5.72, 24 hours): 0.25 µg/mL (≈ 0.197 µM)
- MIC (pH 5.72, read-out: MIC (50% inhibition), C. glabrata MRL 32232, pH 5.72, 24 hours): 0.25 µg/mL (≈ 0.197 µM)
- MIC (pH 5.72, read-out: MIC (50% inhibition), C. glabrata MRL 32626, pH 5.72, 24 hours): 0.25 µg/mL (≈ 0.197 µM)
- MIC (pH 5.72, read-out: MIC (50% inhibition), C. glabrata MRL 32993, pH 5.72, 24 hours): 0.25 µg/mL (≈ 0.197 µM)
- MIC (pH 5.72, read-out: MIC (50% inhibition), C. glabrata MRL 33204, pH 5.72, 24 hours): 0.25 µg/mL (≈ 0.197 µM)
- MIC (pH 5.72, read-out: MIC (50% inhibition), C. glabrata MRL 33960, pH 5.72, 24 hours): 0.25 µg/mL (≈ 0.197 µM)
- MIC (pH 5.72, read-out: MIC (50% inhibition), C. glabrata MRL 33961, pH 5.72, 24 hours): 0.25 µg/mL (≈ 0.197 µM)
- MIC (pH 5.72, read-out: MIC (50% inhibition), C. glabrata MRL 34339, pH 5.72, 24 hours): 0.25 µg/mL (≈ 0.197 µM)
- MIC (pH 5.72, read-out: MIC (50% inhibition), C. glabrata MRL 34407, pH 5.72, 24 hours): 0.25 µg/mL (≈ 0.197 µM)
- MIC (pH 5.72, read-out: MIC (50% inhibition), C. glabrata MRL 34576, pH 5.72, 24 hours): 0.25 µg/mL (≈ 0.197 µM)
- MIC50 (pH 7): 0.25 µg/mL (≈ 0.197 µM)
- MIC90 (pH 7): 0.5 µg/mL (≈ 0.394 µM)
- MIC (pH 7, read-out: MIC (50% inhibition), C. glabrata MRL 32075, pH 7.0, 24 hours): 0.25 µg/mL (≈ 0.197 µM)
- MIC (pH 7, read-out: MIC (50% inhibition), C. glabrata MRL 32232, pH 7.0, 24 hours): 0.5 µg/mL (≈ 0.394 µM)
- MIC (pH 7, read-out: MIC (50% inhibition), C. glabrata MRL 32626, pH 7.0, 24 hours): 0.5 µg/mL (≈ 0.394 µM)
- MIC (pH 7, read-out: MIC (50% inhibition), C. glabrata MRL 32993, pH 7.0, 24 hours): 0.25 µg/mL (≈ 0.197 µM)
- MIC (pH 7, read-out: MIC (50% inhibition), C. glabrata MRL 33204, pH 7.0, 24 hours): 0.25 µg/mL (≈ 0.197 µM)
- MIC (pH 7, read-out: MIC (50% inhibition), C. glabrata MRL 33960, pH 7.0, 24 hours): 0.5 µg/mL (≈ 0.394 µM)
- MIC (pH 7, read-out: MIC (50% inhibition), C. glabrata MRL 33961, pH 7.0, 24 hours): 0.25 µg/mL (≈ 0.197 µM)
- MIC (pH 7, read-out: MIC (50% inhibition), C. glabrata MRL 34339, pH 7.0, 24 hours): 0.25 µg/mL (≈ 0.197 µM)
- MIC (pH 7, read-out: MIC (50% inhibition), C. glabrata MRL 34407, pH 7.0, 24 hours): 0.25 µg/mL (≈ 0.197 µM)
- MIC (pH 7, read-out: MIC (50% inhibition), C. glabrata MRL 34576, pH 7.0, 24 hours): 0.25 µg/mL (≈ 0.197 µM)
